Measured values: patent US20030190650A1 (priority 2000, published 2003)

Tested on: primary human neutrophils
Experiment: Gliotoxin block of GM-CSF inhibition of neutrophil apoptosis (MTT)
Type: cell-based
Conditions: 0.1 μg/ml with 5 U/ml GM-CSF
Protocol: Primary human neutrophils are isolated and purified from peripheral blood of normal healthy individuals. Neutrophils are resuspended in serum containing culture medium containing 5 U/ml of GM-CSF at a concentration of 2×10^6/ml. […] After the indicated time, 10 μl of MTT (5 mg/ml) are added to the cultures and incubated for a further 4 h at 37° C. before solubilisation of the purple coloured formazan with acidic isopropanol. Optical densities are read at 570 nm using a plate reader.

## CS[C@]1(CO)C(=O)N2[C@H]3C(=CC=C[C@@H]3O)C[C@@]2(SC)C(=O)N1C [methylgliotoxin, bis-Dethio-bis (Methylthio) Gliotoxin]
  effect on GM-CSF inhibition of neutrophil apoptosis: blocking effect is not seen
